A short description of this data set: Plasma and red cell selenium levels in healthy controls and patient groups on drugs. The format is in vivo, human. To be noted: schizophrenic patients on the drug, compared with the other groups. An excerpt:
Here the selenium levels are expressed in μmol/litre and are shown as means plus or minus the Standard Error of the Mean (SEM)

This passage reports selenium levels results from patent US6919330B2, “Formulations of drugs” (Laxdale Limited, priority 2002, dated 2005).

As for `CN1CCN(C2=Nc3cc(Cl)ccc3Nc3ccccc32)CC1` [clozapine], the selenium levels result is “exceptionally low”.
